Results from patent publication EP1923473B1, “Bis-diglycolamides (BISDGA) as new extractants for lanthanides [Ln(III)] and actinides [An(III)] from aqueous high-level wastes” (Universidad Autónoma de Madrid, priority 2006, dated 2008).

Tests used:
Assay type in all cases: physicochemical
[1] = Batch extraction from simulated HLLW from the PUREX process, alpha spectrometry; conditions: 0.1 mol/L in TPH/1-octanol (90:10)
From the text: The feed solution used for the extraction tests is a simulated solution of an HLLW from the PUREX process, the composition of which is shown in Table 4. Table 4: Composition of the simulated HLLW-PUREX solution used for the extraction tests
The composition of the HLLW corresponds to a burn-up of 33 GWd/tHM, the generated volume of HLLW being 5000 1/t of fuel. The feed was spiked with ^241Am, ^244Cm, ^252Cf and ^152Eu. Oxalic acid and N-(2-hydroxyethyl)ethylenediaminotriacetate (HEDTA) were also added before the extraction tests.
500 µL of the aqueous and organic phases were spiked with 10 µL of a tracer solution containing 241Am, 244Cm, 252Cf and ^152Eu, and were equilibrated for 10 minutes while they were stirred vigorously in a vortex stirrer. After the separation of the phases by centrifugation, 200 µL aliquots of each phase were taken for the determination of the concentration of ^241Am and ^152Eu using a high-purity germanium spectrometer system (EG&G Ortec). The nuclides ^241Am, ^244Cm and ^252Cf were measured by alpha spectrometry with an α-Analyst device of the company Canberra-Packard GmbH, Germany.
The concentrations of the stable elements were determined by mass spectrometry with an inductively coupled plasma source (ICP-MS) in a DRC Elan 6100 device of Perkin Elmer Sciex. The aqueous phase was measured directly after the appropriate dilution. The organic phase was analyzed after having mineralized the organic matter by microwave acid digestion and subsequent dilution.
The distribution coefficients were calculated for each element according to section C).
A 0.1 mol/L solution of compound 4 in the "TPH/1-octanol (90:10)%vol" mixture was prepared. Extraction experiments were carried out with said simulated HLLW in a pure form and also adding oxalic acid and HEDTA to it. These complexing agents have shown to be effective in the DIAMEX process for the complexing of Mo, Zr (H2C2O4) and Pd (HEDTA).
Extraction experiments were carried out with said simulated HLLW in a pure form and also adding oxalic acid and HEDTA to it.

[2] = Eu/Am selectivity factor in extraction from 3 mol/L nitric acid; conditions: 0.1 mol/L in TPH/1-octanol (50:50)%vol; aqueous [HNO3] 3 mol/L
Procedure: 600 µL of the organic phase of the compound to be studied, previously equilibrated, were contacted with 600 µL of aqueous phase consisting of a 3 mol/L nitric acid solution spiked with 600 Bq of ^152Eu and 600 Bq of ^241Am. It was stirred vigorously by means of an oscillating shaker for 30 minutes and the phases were separated by centrifugation at 5000 rpm. 400 µL were taken from each of the phases for determining the concentration of the radionuclides ^152Eu and ^241Am. This determination was carried out by means of the high energy gamma spectrometry technique with a high-purity Ge detector (Canberra Inc.), using the 122 keV line for the determination of ^152Eu concentration and the 59.5 keV line for the determination of ^241Am concentration. The distribution coefficient was calculated by relating the concentration of each of the radionuclides in the organic phase and in the aqueous phase, according to the expression: DM = ([M]org)/([M]aq) [formula]
The Eu/Am selectivity factor was calculated by relating the corresponding distribution coefficients of Eu with those of Am in the same experimental conditions: SFEu/Am = DEu /DAm [formula]
The distribution coefficients and the selectivity factor of each of them were determined as indicated in sections A) to C).

Radiolytic stability = conditions: 60Co irradiation, 4 kGy/h, up to 1000 kGy
Procedure: The tests of stability against irradiation were carried out in the NAYADE facility at CIEMAT site, with external ^60Co sources with an approximate activity of 5000 Ci, with a homogeneous irradiation flux. The dose rate applied in all the experiments was 4 kGy/h and integrated doses of 250 kGy, 500 kGy, 750 kGy and 1000 kGy were considered. The irradiation device consists of a metal cylinder which is introduced in a rack wherein the ^60CO sources are placed radially, such that the irradiation is homogeneous. The irradiation process is carried out submersing the device in a pool of water with a depth of 4 meters.
Irradiation tests of the solid compound (in the absence of solvent) and of the compound dissolved in the "n-dodecane/1-octanol (95:5)%vol" mixture, equilibrated with 3 mol/L nitric acid, were carried out. The organic solutions were prepared and equilibrated as detailed in the previous sections A) and B).
Once each programmed integrated dose was reached, the extraction capability of the organic samples was evaluated as detailed in section C).
The irradiation of compound 4 in solid form (in the absence of solvent) and dissolved at a 0.1 mol/L concentration in the "n-dodecane/1-octanol 1 (95:5)%vol" mixture, equilibrated with 3 mol/L nitric acid, was carried out. […] After each integrated dose, the extraction capability of Am(III) and Eu(III) was evaluated as described in section C. […]

[3] = Oxalic acid 0.2 mol/L, HEDTA 0.05 mol/L, TBP 0.5 mol/L
[4] = Oxalic acid 0.2 mol/L, HEDTA 0.05 mol/L, TBP No
[5] = Oxalic acid 0.3 mol/L, HEDTA 0.05 mol/L, TBP 0.5 mol/L
[6] = Oxalic acid 0.3 mol/L, HEDTA 0.05 mol/L, TBP No
[7] = Oxalic acid No, HEDTA No, TBP 0.5 mol/L
[8] = Oxalic acid No, HEDTA No, TBP No

Substance: 2-Dioctylcarbamoylmethoxy-N-[3-[3-(2-dioctylcarbamoyl-methoxyacetylamino)propoxy]propyl]acetamide [Compound 18]
- Distribution coefficients Am-241, α [1, 3]: 55
- Distribution coefficients Am-241, α [1, 4]: 46
- Distribution coefficients Am-241, α [1, 5]: 90
- Distribution coefficients Am-241, α [1, 6]: 87
- Distribution coefficients Am-241, α [1, 7]: 56
- Distribution coefficients Am-241, α [1, 8]: 96
- SFEu/Am [2]: 6.0
- stability against radiolysis (Radiolytic stability): very stable against radiolysis

Substance: 2-Dioctylcarbamoylmethoxy-N-[3-[(2-dioctylcarbamoyl-methoxy-acetylamino)methyl]benzyl]acetamide [Compound 4]
- Distribution coefficients Am-241, α [1, 3]: 52
- Distribution coefficients Am-241, α [1, 4]: 158
- Distribution coefficients Am-241, α [1, 5]: 83
- Distribution coefficients Am-241, α [1, 6]: 164
- Distribution coefficients Am-241, α [1, 7]: 58
- Distribution coefficients Am-241, α [1, 8]: 112
- SFEu/Am [2]: 4.3
- stability against radiolysis (Radiolytic stability): very stable against radiolysis
